Converted amounts (≈) assume the structure as drawn. Each block holds one molecule with its values, some of them ahead of it.
Experiments:
physchem [1] = assay: physchem
Excerpt: The aqueous phase is decanted and then analysed by gas chromatography in order to determine the binder content in g/L, corresponding to its solubility.
The aqueous phase is decanted and then analysed by gas chromatography to determine the concentration of organic binder.

[2] = Granule dissolution test in acetone; type: physicochemical; conditions: 13 g AZDN in 100 ml acetone, room temperature, 100 rpm, visual
Protocol: A granule dissolution test is carried out at room temperature. A glass Erlenmeyer flask fitted with a magnetic stirring bar is placed on a magnetic stirrer. With the stirring stopped, 13 g of AZDN are introduced into the Erlenmeyer flask. 100 ml of acetone are then introduced quickly and stirring is started (100 rpm). The time taken until, visually, undissolved AZDN crystals are no longer seen is recorded.
Commercial recrystallized AZDN (130-257-438 microns/dv 10-50-90), AZDN granules prepared and dried as obtained above, and the dry powdered AZDN used in Example 1 are compared.

[3] = Measurement of the solubility of AZDN in the organic binder; conditions: 20 °C, organic solvent or mixture, thermodynamic from solid
Protocol: (§1) The bottle is shaken for a period of between 1 h and 10 h, for example 6 h. After decantation, said binder is analysed to determine its content of compound of formula (I): this content corresponds to the solubility of the azo compound in the organic binder in g/L. The analysis is carried out by gas chromatography.
(§2) The bottle is shaken for approximately 6 h. After decantation, the organic binder is analysed to determine its AZDN concentration. The analysis is carried out by gas chromatography with an injector temperature set at 220° C. (under these conditions, AZDN is essentially transformed into tetramethylsuccinonitrile in the injector).

physchem [4] = conditions: 20 °C, organic solvent or mixture, thermodynamic from solid
Protocol: as §1, §2

[5] = water, 20 °C, thermodynamic from solid
[6] = 20 °C, water, thermodynamic from solid

- solubility at 1 h (physchem [1]; [5]): 20 mg/mL (≈ 200 mM)
Structure (SMILES): CC(=O)CC(C)C [Methyl isobutyl ketone]

- solubility at 1 h (physchem [1]; [6]): < 0.5 mg/mL
Structure (SMILES): Cc1cccc(C)c1 [meta-Xylene]

- solubility at 1 h (physchem [1]; [5]): 7 mg/mL
Structure (SMILES): CC(=O)OCC(C)C [Isobutyl acetate]

- solubility at 1 h (physchem [1]; [5]): 12.5 mg/mL (≈ 125 mM)
Structure (SMILES): COC1CCCC1 [Methoxycyclopentane]

- solubility at 1 h (physchem [1]; [5]): 5 mg/mL (≈ 43.8 mM)
Structure (SMILES): CCCCCC(C)=O [Methyl pentyl ketone]

Further lines, the molecule ahead of its results:

Structure (SMILES): CC(C)(C#N)N=NC(C)(C)C#N [Dry AZDN powder, 2,2′-azobis(isobutyronitrile)]
- Dissolution time [2]: 15 s

Structure (SMILES): CC(C)(C#N)N=NC(C)(C)C#N [AZDN, 2,2′-azobis(isobutyronitrile)]
- solubility at 6 h ([3]; isobutyl acetate): 59 mg/mL (≈ 359 mM)
- solubility at 6 h ([3]; meta-xylene): 25 mg/mL (≈ 152 mM)
- solubility at 6 h ([3]; methoxycyclopentane (CPME)): 30.5 mg/mL (≈ 186 mM)
- solubility at 6 h ([3]; methyl isobutyl ketone): 75.5 mg/mL (≈ 460 mM)
- solubility at 6 h ([3]; methyl pentyl ketone): 45 mg/mL (≈ 274 mM)
- solubility at 6 h ([3]; toluene): 60 mg/mL (≈ 365 mM)
- solubility at 6 h (physchem [4]; diethyl carbonate): 85 mg/mL (≈ 518 mM)
- solubility at 6 h (physchem [4]; n-butyl acetate): 59 mg/mL (≈ 359 mM)

Structure (SMILES): CC(C)(C#N)N=NC(C)(C)C#N [Recrystallized AZDN, 2,2′-azobis(isobutyronitrile), reference compound]
- Dissolution time [2]: 35 s

Structure (SMILES): CCCCOC(C)=O [n-Butyl acetate]
- solubility at 1 h (physchem [1]; [6]): 7 mg/mL

Reference: patent US20260103581A1, “PROCESS FOR GRANULATING AZO COMPOUNDS AND GRANULES OBTAINED” (ARKEMA FRANCE, priority 2022, published 2026)
